Source: patent US20120165331A1, “Di/tri-aza-spiro-C9-C11alkanes” (priority 2010, published 2012)

Columns and labels:
human orexin 1 receptor [1] = biological target: T1, human orexin 1 receptor (Homo sapiens, UniProt O43613); assay: Radioligand binding assay ([3H]-SB649868 competition), human orexin 1 receptor; details: radioligand [3H]-SB649868; read-out: Binding hOx1R Kd
T1 construct: expressed in transfected cells
T1 sequence (O43613 1-425): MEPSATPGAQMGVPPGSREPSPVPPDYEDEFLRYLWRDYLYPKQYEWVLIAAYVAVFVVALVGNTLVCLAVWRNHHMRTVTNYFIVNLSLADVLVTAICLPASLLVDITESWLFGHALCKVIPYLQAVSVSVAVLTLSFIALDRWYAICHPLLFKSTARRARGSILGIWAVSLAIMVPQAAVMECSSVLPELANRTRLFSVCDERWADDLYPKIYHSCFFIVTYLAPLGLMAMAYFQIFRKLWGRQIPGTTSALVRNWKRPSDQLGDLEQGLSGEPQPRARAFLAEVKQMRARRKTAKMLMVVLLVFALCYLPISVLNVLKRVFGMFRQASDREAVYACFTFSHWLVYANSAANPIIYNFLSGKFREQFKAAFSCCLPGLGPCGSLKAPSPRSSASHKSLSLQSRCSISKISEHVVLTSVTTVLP
In short: (§1)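 Competition binding against roughly 1 nM [3H]-SB649868, run in triplicate for 1 h at room temperature on CHO or HEK membranes bearing human receptor (10 mM HEPES pH 7.5, 0.5% BSA, 5 mM MgCl2, 1 mM CaCl2, 0.05% tween). Bound radioactivity after vacuum filtration; almorexant 10 μM for non-specific binding; expressed as Kd.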

human orexin 2 receptor [2] = biological target: T2, human orexin 2 receptor (Homo sapiens, UniProt O43614); assay: Radioligand binding assay ([3H]-SB649868 competition), human orexin 2 receptor; details: radioligand [3H]-SB649868; read-out: Binding hOx2R Kd
T2 construct: expressed in transfected cells
T2 sequence (O43614 1-444): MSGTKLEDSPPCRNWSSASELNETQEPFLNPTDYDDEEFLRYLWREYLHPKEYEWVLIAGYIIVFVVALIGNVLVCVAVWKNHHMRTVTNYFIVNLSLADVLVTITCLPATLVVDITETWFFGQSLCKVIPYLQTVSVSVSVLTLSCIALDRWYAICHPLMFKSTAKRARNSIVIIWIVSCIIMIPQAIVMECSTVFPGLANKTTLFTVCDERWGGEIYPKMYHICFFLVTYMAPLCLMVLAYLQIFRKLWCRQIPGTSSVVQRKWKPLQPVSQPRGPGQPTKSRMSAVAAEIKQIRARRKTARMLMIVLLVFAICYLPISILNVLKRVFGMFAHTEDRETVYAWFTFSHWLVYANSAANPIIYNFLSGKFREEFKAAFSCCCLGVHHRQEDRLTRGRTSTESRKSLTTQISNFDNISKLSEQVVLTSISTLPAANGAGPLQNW
In short: as §1

human orexin 1 receptor [3] = biological target: T1, human orexin 1 receptor; assay: Calcium accumulation in cells (FLIPR), antagonism of orexin A, human orexin 1 receptor; format: cell-based; details: for Ki: calcium accumulation, antagonism of orexin A, Cheng-Prusoff corrected, read-out: FLIPR hOx1R Ki
human orexin 2 receptor [4] = biological target: T2, human orexin 2 receptor; assay: Calcium accumulation in cells (FLIPR), antagonism of orexin A, human orexin 2 receptor; format: cell-based; details: calcium accumulation, antagonism of orexin A, Cheng-Prusoff corrected; read-out: FLIPR hOx2R Ki

SMILES | Kd (human orexin 1 receptor [1]) | Kd (human orexin 2 receptor [2]) | inhibition at 10 µM (human orexin 1 receptor [3]; measured at a concentration of 10 μM of compound, read-out: FLIPR hOx1R % inhibition) | Ki (human orexin 2 receptor [4]) | Ki (human orexin 1 receptor [3])
Cc1cc(C)nc(N2CCC3(CC2)OCCN(Cc2ccccc2-c2nc(C)no2)C3=O)n1 [Example 2.10, 9-(4,6-Dimethylpyrimidin-2-yl)-4-(2-(3-methyl-1,2,4-oxadiazol-5-yl)benzyl)-1-oxa-4,9-diazaspiro[5.5]undecan-5-one] | 4610 nM | 144 nM | 35% | 72 nM | 
Cc1cc(C)nc(N2CCC3(CC2)OCCN(Cc2nn(C)cc2-c2ccccc2)C3=O)n1 [Example 2.11, 9-(4,6-Dimethylpyrimidin-2-yl)-4-((1-methyl-4-phenyl-1H-pyrazol-3-yl)methyl)-1-oxa-4,9-diazaspiro[5.5]undecan-5-one] | 3180 nM | 229 nM |  | 75 nM | 2320 nM
Cc1cc(C)nc(N2CCC3(CC2)OCCN(Cc2n[nH]cc2-c2ccccc2)C3=O)n1 [Example 2.13, 9-(4,6-Dimethylpyrimidin-2-yl)-4-((4-phenyl-1H-pyrazol-3-yl)methyl)-1-oxa-4,9-diazaspiro[5.5]undecan-5-one] | 1560 nM | 143 nM |  | 38 nM | 1500 nM
COc1cccc(-c2n[nH]nc2CN2CCOC3(CCN(c4nc(C)cc(C)n4)CC3)C2=O)c1 [Example 2.17, 9-(4,6-Dimethylpyrimidin-2-yl)-4-((5-(3-methoxyphenyl)-2H-1,2,3-triazol-4-yl)methyl)-1-oxa-4,9-diazaspiro[5.5]undecan-5-one] | 363 nM | 16 nM |  | 1 nM | 220 nM
COc1cc(C)nc(N2CCC3(CC2)OCCN(Cc2c[nH]c4ccccc24)C3=O)n1 [Example 2.18, 4-((1H-Indol-3-yl)methyl)-9-(4-methoxy-6-methylpyrimidin-2-yl)-1-oxa-4,9-diazaspiro[5.5]undecan-5-one] | 625 nM | 23 nM |  | 4 nM | 383 nM
COc1cc(C)nc(N2CCC3(CC2)OCCN(Cc2c[nH]c4ncccc24)C3=O)n1 [Example 2.19, 4-((1H-Pyrrolo[2,3-b]pyridin-3-yl)methyl)-9-(4-methoxy-6-methylpyrimidin-2-yl)-1-oxa-4,9-diazaspiro[5.5]undecan-5-one] | 3520 nM | 184 nM |  | 35 nM | 1490 nM
COc1cccc(-c2ocnc2CN2CCOC3(CCN(c4nc(C)cc(OC)n4)CC3)C2=O)c1 [Example 2.20, 9-(4-Methoxy-6-methylpyrimidin-2-yl)-4-((5-(3-methoxyphenyl)oxazol-4-yl)methyl)-1-oxa-4,9-diazaspiro[5.5]undecan-5-one] | 57 nM | 7 nM |  | 2 nM | 43 nM
CCc1cc(C)nc(N2CCC3(CC2)OCCN(Cc2c[nH]c4ccccc24)C3=O)n1 [Example 2.23, 4-((1H-indol-3-yl)methyl)-9-(4-ethyl-6-methylpyrimidin-2-yl)-1-oxa-4,9-diazaspiro[5.5]undecan-5-one] | 1570 nM | 68 nM |  | 37 nM | 582 nM
O=C1N(Cc2c[nH]c3ccccc23)CCC12CCN(c1cnc3ccccc3n1)CC2 [Example 3.2, 2-((1H-Indol-3-yl)methyl)-8-(quinoxalin-2-yl)-2,8-diazaspiro[4.5]decan-1-one] | 920 nM | 121 nM |  | 41 nM | 1060 nM
COc1cc(C)nc(N2CCC3(CCN(Cc4ccccc4-c4nc(C)no4)C3=O)CC2)n1 [Example 3.20, 8-(4-Methoxy-6-methyl-pyrimidin-2-yl)-2-[2-(3-methyl-[1,2,4]oxadiazol-5-yl)-benzyl]-2,8-diaza-spiro[4.5]decan-1-one] | 7670 nM | 328 nM |  | 43 nM | 1640 nM
COc1cc(C)nc(N2CCC3(CCN(Cc4nn(C)nc4-c4ccccc4)C3=O)C2)n1 (centres unmarked) [Example 5.43, 7-(4-methoxy-6-methylpyrimidin-2-yl)-2-((2-methyl-5-phenyl-2H-1,2,3-triazol-4-yl)methyl)-2,7-diazaspiro[4.4]nonan-1-one] | 339 nM | 118 nM |  | 29 nM | 421 nM
COc1cc(C)nc(N2CCC3(CCN(Cc4nn(C)nc4-c4cccc(C)c4)C3=O)C2)n1 (centres unmarked) [Example 5.44, 7-(4-methoxy-6-methylpyrimidin-2-yl)-2-((2-methyl-5-(m-tolyl)-2H-1,2,3-triazol-4-yl)methyl)-2,7-diazaspiro[4.4]nonan-1-one] | 106 nM | 20 nM |  | 3.4 nM | 68 nM
COc1cccc(-c2nn(C)nc2CN2CCC3(CCN(c4nc(C)cc(OC)n4)C3)C2=O)c1 (centres unmarked) [Example 5.45, 7-(4-methoxy-6-methylpyrimidin-2-yl)-2-((5-(3-methoxyphenyl)-2-methyl-2H-1,2,3-triazol-4-yl)methyl)-2,7-diazaspiro[4.4]nonan-1-one] | 97 nM | 21 nM |  | 2.8 nM | 29 nM
CN(C)c1cc(C(F)(F)F)nc(N2CCC3(CCN(Cc4c[nH]c5ccccc45)C3=O)C2)n1 (centres unmarked) [Example 5.47, 2-((1H-indol-3-yl)methyl)-7-(4-(dimethylamino)-6-(trifluoromethyl)pyrimidin-2-yl)-2,7-diazaspiro[4.4]nonan-1-one] | 1030 nM | 518 nM |  | 97 nM | 193 nM
COc1cc(C)nc(N2CCC3(CCCN(Cc4c[nH]c5ccccc45)C3=O)C2)n1 (centres unmarked) [Example 7.1, 7-((1H-Indol-3-yl)methyl)-2-(4-methoxy-6-methylpyrimidin-2-yl)-2,7-diazaspiro[4.5]decan-6-one] | 14 nM | 13 nM |  | 10 nM | 31 nM
COc1ccnc(N2CCC3(CCCN(Cc4c[nH]c5ccccc45)C3=O)C2)n1 (centres unmarked) [Example 7.4, 7-((1H-Indol-3-yl)methyl)-2-(4-methoxypyrimidin-2-yl)-2,7-diazaspiro[4.5]decan-6-one] | 201 nM | 152 nM |  | 59 nM | 317 nM
COc1cccc(-c2n[nH]nc2CN2CCCC3(CCN(c4nccc(OC)n4)C3)C2=O)c1 (centres unmarked) [Example 7.6, 7-((5-(3-Methoxyphenyl)-2H-1,2,3-triazol-4-yl)methyl)-2-(4-methoxypyrimidin-2-yl)-2,7-diazaspiro[4.5]decan-6-one] | 187 nM | 170 nM |  | 65 nM | 189 nM
Cc1ccnc(N2CCC3(CCCN(Cc4c[nH]c5ccccc45)C3=O)C2)n1 (centres unmarked) [Example 7.11, 7-((1H-indol-3-yl)methyl)-2-(4-methylpyrimidin-2-yl)-2,7-diazaspiro[4.5]decan-6-one] | 89 nM | 73 nM |  | 38 nM | 304 nM
COc1cc(C)nc(N2CCC3(CCCN(Cc4n[nH]c5ccccc45)C3=O)C2)n1 (centres unmarked) [Example 7.12, 7-((1H-indazol-3-yl)methyl)-2-(4-methoxy-6-methylpyrimidin-2-yl)-2,7-diazaspiro[4.5]decan-6-one] | 173 nM | 138 nM |  | 48 nM | 309 nM
COc1cc(C)nc(N2CCC3(CCCN(Cc4ccccc4-c4nc(C)no4)C3=O)C2)n1 (centres unmarked) [Example 7.14, 2-(4-methoxy-6-methylpyrimidin-2-yl)-7-(2-(3-methyl-1,2,4-oxadiazol-5-yl)benzyl)-2,7-diazaspiro[4.5]decan-6-one] | 171 nM | 210 nM |  | 92 nM | 174 nM
O=C1N(Cc2c[nH]c3ccccc23)CCCC12CCN(c1nc3ccccc3[nH]1)C2 (centres unmarked) [Example 7.15, 7-((1H-indol-3-yl)methyl)-2-(1H-benzo[d]imidazol-2-yl)-2,7-diazaspiro[4.5]decan-6-one] | 43 nM | 28 nM |  | 68 nM | 474 nM
O=C1CCC2(CCN(c3cnc4ccccc4n3)CC2)N1Cc1cccc2[nH]ccc12 [Example 8.1] | 148 nM | 32 nM |  | 2.1 nM | 78 nM
Cc1cc(C)nc(N2CCC3(CCC(=O)N3Cc3cccc4[nH]ccc34)CC2)n1 [Example 8.3, 1-((1H-Indol-4-yl)methyl)-8-(4,6-dimethylpyrimidin-2-yl)-1,8-diazaspiro[4.5]decan-2-one] | 2380 nM | 30 nM |  | 2.3 nM | 1210 nM
